System: CCRF-CEM
Experiment: Cytotoxicity against human paclitaxel-resistant CCRF-CEM cells after 72 hrs by celltiter-96 aqueous one solution assay
Type: functional, cell-based
Conditions: not given

Structure (SMILES)	IC50
CO[C@H]1[C@@H](OC)C[C@H](C)CC2=C(NCCN3CCC3)C(=O)C=C(NC(=O)/C(C)=C/C=C\[C@H](OC)[C@@H](OC(N)=O)/C(C)=C/[C@@H]1C)C2=O (stereo in doubt)	510 nM
CO[C@H]1[C@@H](OC)C[C@H](C)CC2=C(NCCN3CCCC3)C(=O)C=C(NC(=O)/C(C)=C/C=C\[C@H](OC)[C@@H](OC(N)=O)/C(C)=C/[C@@H]1C)C2=O (stereo in doubt)	520 nM
CO[C@H]1[C@@H](OC)C[C@H](C)CC2=C(NCCN(C)C)C(=O)C=C(NC(=O)/C(C)=C/C=C\[C@H](OC)[C@@H](OC(N)=O)/C(C)=C/[C@@H]1C)C2=O	390 nM
CO[C@H]1/C=C\C=C(/C)C(=O)NC2=CC(=O)C(NCCN(C)C)=C(C[C@@H](C)C[C@H](OC)[C@H](O)[C@@H](C)/C=C(\C)[C@@H]1OC(N)=O)C2=O (stereo in doubt) [ALVESPIMYCIN]	2500 nM

System: MCF7
Experiment: Cytotoxicity against human MCF7 cells after 72 hrs by celltiter-glo assay
Type: functional, cell-based
Conditions: MCF7, 72 h

Structure (SMILES)	IC50
CO[C@H]1[C@@H](OC)C[C@H](C)CC2=C(NCCN3CCC3)C(=O)C=C(NC(=O)/C(C)=C/C=C\[C@H](OC)[C@@H](OC(N)=O)/C(C)=C/[C@@H]1C)C2=O (stereo in doubt)	51 nM
CO[C@H]1[C@@H](OC)C[C@H](C)CC2=C(NCCN3CCCC3)C(=O)C=C(NC(=O)/C(C)=C/C=C\[C@H](OC)[C@@H](OC(N)=O)/C(C)=C/[C@@H]1C)C2=O (stereo in doubt)	76 nM
CO[C@H]1[C@@H](OC)C[C@H](C)CC2=C(NCCN(C)C)C(=O)C=C(NC(=O)/C(C)=C/C=C\[C@H](OC)[C@@H](OC(N)=O)/C(C)=C/[C@@H]1C)C2=O	50 nM
CO[C@H]1/C=C\C=C(/C)C(=O)NC2=CC(=O)C(NCCN(C)C)=C(C[C@@H](C)C[C@H](OC)[C@H](O)[C@@H](C)/C=C(\C)[C@@H]1OC(N)=O)C2=O (stereo in doubt) [ALVESPIMYCIN]	230 nM

System: A549
Experiment: Cytotoxicity against human A549 cells after 72 hrs by celltiter-glo assay
Type: functional, cell-based
Conditions: A549, 72 h

Structure (SMILES)	IC50
CO[C@H]1[C@@H](OC)C[C@H](C)CC2=C(NCCN3CCC3)C(=O)C=C(NC(=O)/C(C)=C/C=C\[C@H](OC)[C@@H](OC(N)=O)/C(C)=C/[C@@H]1C)C2=O (stereo in doubt)	26 nM
CO[C@H]1[C@@H](OC)C[C@H](C)CC2=C(NCCN3CCCC3)C(=O)C=C(NC(=O)/C(C)=C/C=C\[C@H](OC)[C@@H](OC(N)=O)/C(C)=C/[C@@H]1C)C2=O (stereo in doubt)	62 nM
CO[C@H]1[C@@H](OC)C[C@H](C)CC2=C(NCCN(C)C)C(=O)C=C(NC(=O)/C(C)=C/C=C\[C@H](OC)[C@@H](OC(N)=O)/C(C)=C/[C@@H]1C)C2=O	23 nM
CO[C@H]1/C=C\C=C(/C)C(=O)NC2=CC(=O)C(NCCN(C)C)=C(C[C@@H](C)C[C@H](OC)[C@H](O)[C@@H](C)/C=C(\C)[C@@H]1OC(N)=O)C2=O (stereo in doubt) [ALVESPIMYCIN]	68 nM

System: SK-BR-3
Experiment: Cytotoxicity against human SKBR3 cells after 72 hrs by celltiter-glo assay
Type: functional, cell-based
Conditions: Homo sapiens, SK-BR-3, 72 h

Structure (SMILES)	IC50
C=CCO/N=C1/[C@@H](OC)C[C@H](C)CC2=C(NCCN(C)C)C(=O)C=C(NC(=O)/C(C)=C/C=C\[C@H](OC)[C@@H](OC(N)=O)/C(C)=C/[C@@H]1C)C2=O (stereo in doubt)	400 nM
CO[C@H]1/C=C\C=C(/C)C(=O)NC2=CC(=O)C(N)=C(C[C@@H](C)C[C@H](OC)[C@H](O)[C@@H](C)/C=C(\C)[C@@H]1OC(N)=O)C2=O (stereo in doubt)	33 nM
CO[C@H]1C[C@H](C)CC2=C(NCCN(C)C)C(=O)C=C(NC(=O)/C(C)=C/C=C\[C@H](OC)[C@@H](OC(N)=O)/C(C)=C/[C@H](C)/C1=N\OCC(=O)O)C2=O (stereo in doubt)	2700 nM
C=CCO[C@H]1[C@@H](OC)C[C@H](C)CC2=C(N3CCC3)C(=O)C=C(NC(=O)/C(C)=C/C=C\[C@H](OC)[C@@H](OC(N)=O)/C(C)=C/[C@@H]1C)C2=O	390 nM
CO[C@H]1/C=C\C=C(/C)C(=O)NC2=CC(=O)C(N3CCC3)=C(C[C@@H](C)C[C@H](OC)[C@H](O)[C@@H](C)/C=C(\C)[C@@H]1OC(N)=O)C2=O (stereo in doubt)	24 nM
CO[C@H]1[C@@H](OC)C[C@H](C)CC2=C(NCCN3CCC3)C(=O)C=C(NC(=O)/C(C)=C/C=C\[C@H](OC)[C@@H](OC(N)=O)/C(C)=C/[C@@H]1C)C2=O (stereo in doubt)	130 nM
CO[C@H]1/C=C\C=C(/C)C(=O)NC2=CC(=O)C(NCCN3CCC3)=C(C[C@@H](C)C[C@H](OC)[C@H](O)[C@@H](C)/C=C(\C)[C@@H]1OC(N)=O)C2=O (stereo in doubt)	26 nM
CO/N=C1/[C@@H](OC)C[C@H](C)CC2=C(NCCN(C)C)C(=O)C=C(NC(=O)/C(C)=C/C=C\[C@H](OC)[C@@H](OC(N)=O)/C(C)=C/[C@@H]1C)C2=O (stereo in doubt)	550 nM
CO[C@H]1C[C@H](C)CC2=C(N3CCC3)C(=O)C=C(NC(=O)/C(C)=C/C=C\[C@H](OC)[C@@H](OC(N)=O)/C(C)=C/[C@H](C)C1=O)C2=O (stereo in doubt)	260 nM
CO[C@H]1[C@@H](OC)C[C@H](C)CC2=C(NCCN3CCCC3)C(=O)C=C(NC(=O)/C(C)=C/C=C\[C@H](OC)[C@@H](OC(N)=O)/C(C)=C/[C@@H]1C)C2=O (stereo in doubt)	160 nM
CO[C@H]1C[C@H](C)CC2=C(NCCN(C)C)C(=O)C=C(NC(=O)/C(C)=C/C=C\[C@H](OC)[C@@H](OC(N)=O)/C(C)=C/[C@H](C)/C1=N\O)C2=O (stereo in doubt)	95 nM
CO[C@H]1[C@@H](OC)C[C@H](C)CC2=C(NCCN(C)C)C(=O)C=C(NC(=O)/C(C)=C/C=C\[C@H](OC)[C@@H](OC(N)=O)/C(C)=C/[C@@H]1C)C2=O	11 nM
CO[C@H]1/C=C\C=C(/C)C(=O)NC2=CC(=O)C(NCCc3c[nH]cn3)=C(C[C@@H](C)C[C@H](OC)[C@H](O)[C@@H](C)/C=C(\C)[C@@H]1OC(N)=O)C2=O (stereo in doubt)	98 nM
CO[C@H]1/C=C\C=C(/C)C(=O)NC2=CC(=O)C(NCCN(C)C)=C(C[C@@H](C)C[C@H](OC)[C@H](O)[C@@H](C)/C=C(\C)[C@@H]1OC(N)=O)C2=O (stereo in doubt) [ALVESPIMYCIN]	24 nM

System: SK-OV-3
Experiment: Cytotoxicity against human SKOV3 cells after 72 hrs by celltiter-glo assay
Type: functional, cell-based
Conditions: SK-OV-3, 72 h

Structure (SMILES)	IC50
CO[C@H]1[C@@H](OC)C[C@H](C)CC2=C(NCCN3CCC3)C(=O)C=C(NC(=O)/C(C)=C/C=C\[C@H](OC)[C@@H](OC(N)=O)/C(C)=C/[C@@H]1C)C2=O (stereo in doubt)	65 nM
CO[C@H]1[C@@H](OC)C[C@H](C)CC2=C(NCCN3CCCC3)C(=O)C=C(NC(=O)/C(C)=C/C=C\[C@H](OC)[C@@H](OC(N)=O)/C(C)=C/[C@@H]1C)C2=O (stereo in doubt)	69 nM
CO[C@H]1[C@@H](OC)C[C@H](C)CC2=C(NCCN(C)C)C(=O)C=C(NC(=O)/C(C)=C/C=C\[C@H](OC)[C@@H](OC(N)=O)/C(C)=C/[C@@H]1C)C2=O	43 nM
CO[C@H]1/C=C\C=C(/C)C(=O)NC2=CC(=O)C(NCCN(C)C)=C(C[C@@H](C)C[C@H](OC)[C@H](O)[C@@H](C)/C=C(\C)[C@@H]1OC(N)=O)C2=O (stereo in doubt) [ALVESPIMYCIN]	220 nM

System: CCRF-CEM
Experiment: Cytotoxicity against human CCRF-CEM cells after 72 hrs by celltiter-96 aqueous one solution assay
Type: functional, cell-based
Conditions: not given

Structure (SMILES)	IC50
CO[C@H]1[C@@H](OC)C[C@H](C)CC2=C(NCCN3CCC3)C(=O)C=C(NC(=O)/C(C)=C/C=C\[C@H](OC)[C@@H](OC(N)=O)/C(C)=C/[C@@H]1C)C2=O (stereo in doubt)	85 nM
CO[C@H]1[C@@H](OC)C[C@H](C)CC2=C(NCCN3CCCC3)C(=O)C=C(NC(=O)/C(C)=C/C=C\[C@H](OC)[C@@H](OC(N)=O)/C(C)=C/[C@@H]1C)C2=O (stereo in doubt)	160 nM
CO[C@H]1[C@@H](OC)C[C@H](C)CC2=C(NCCN(C)C)C(=O)C=C(NC(=O)/C(C)=C/C=C\[C@H](OC)[C@@H](OC(N)=O)/C(C)=C/[C@@H]1C)C2=O	58 nM
CO[C@H]1/C=C\C=C(/C)C(=O)NC2=CC(=O)C(NCCN(C)C)=C(C[C@@H](C)C[C@H](OC)[C@H](O)[C@@H](C)/C=C(\C)[C@@H]1OC(N)=O)C2=O (stereo in doubt) [ALVESPIMYCIN]	540 nM

Molecular target: Heat shock protein HSP 90-beta (Homo sapiens, UniProt P08238)
Sequence (P08238 whole entry): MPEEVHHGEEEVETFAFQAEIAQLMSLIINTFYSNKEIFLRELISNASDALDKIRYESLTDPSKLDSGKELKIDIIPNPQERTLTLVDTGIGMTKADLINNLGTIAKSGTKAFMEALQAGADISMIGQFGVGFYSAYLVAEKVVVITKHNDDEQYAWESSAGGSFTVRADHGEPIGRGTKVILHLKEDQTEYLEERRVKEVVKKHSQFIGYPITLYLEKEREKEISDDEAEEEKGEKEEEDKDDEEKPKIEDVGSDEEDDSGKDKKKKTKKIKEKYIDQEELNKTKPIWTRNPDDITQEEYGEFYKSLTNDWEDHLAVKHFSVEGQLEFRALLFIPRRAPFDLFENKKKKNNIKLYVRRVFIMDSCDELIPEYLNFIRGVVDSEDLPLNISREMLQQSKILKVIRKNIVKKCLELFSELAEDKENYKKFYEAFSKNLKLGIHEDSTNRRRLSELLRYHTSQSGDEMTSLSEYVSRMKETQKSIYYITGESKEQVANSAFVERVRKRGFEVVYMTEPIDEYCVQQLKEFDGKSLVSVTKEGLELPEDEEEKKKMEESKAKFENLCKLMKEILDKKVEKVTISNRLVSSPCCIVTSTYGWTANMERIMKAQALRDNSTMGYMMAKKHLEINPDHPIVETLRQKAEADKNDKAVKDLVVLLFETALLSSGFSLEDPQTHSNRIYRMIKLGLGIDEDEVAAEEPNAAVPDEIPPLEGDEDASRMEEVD
Experiment: Binding affinity to human recombinant HSP90
Conditions: not given

Kd	Structure (SMILES)
> 100000 nM	C=CCO/N=C1/[C@@H](OC)C[C@H](C)CC2=C(NCCN(C)C)C(=O)C=C(NC(=O)/C(C)=C/C=C\[C@H](OC)[C@@H](OC(N)=O)/C(C)=C/[C@@H]1C)C2=O (stereo in doubt)
> 25000 nM	CO[C@H]1C[C@H](C)CC2=C(NCCN(C)C)C(=O)C=C(NC(=O)/C(C)=C/C=C\[C@H](OC)[C@@H](OC(N)=O)/C(C)=C/[C@H](C)/C1=N\OCC(=O)O)C2=O (stereo in doubt)
2900 nM	C=CCO[C@H]1[C@@H](OC)C[C@H](C)CC2=C(N3CCC3)C(=O)C=C(NC(=O)/C(C)=C/C=C\[C@H](OC)[C@@H](OC(N)=O)/C(C)=C/[C@@H]1C)C2=O
400 nM	CO[C@H]1/C=C\C=C(/C)C(=O)NC2=CC(=O)C(NCCN3CCC3)=C(C[C@@H](C)C[C@H](OC)[C@H](O)[C@@H](C)/C=C(\C)[C@@H]1OC(N)=O)C2=O (stereo in doubt)
> 100000 nM	CO/N=C1/[C@@H](OC)C[C@H](C)CC2=C(NCCN(C)C)C(=O)C=C(NC(=O)/C(C)=C/C=C\[C@H](OC)[C@@H](OC(N)=O)/C(C)=C/[C@@H]1C)C2=O (stereo in doubt)
6400 nM	CO[C@H]1C[C@H](C)CC2=C(N3CCC3)C(=O)C=C(NC(=O)/C(C)=C/C=C\[C@H](OC)[C@@H](OC(N)=O)/C(C)=C/[C@H](C)C1=O)C2=O (stereo in doubt)
> 10000 nM	CO[C@H]1C[C@H](C)CC2=C(NCCN(C)C)C(=O)C=C(NC(=O)/C(C)=C/C=C\[C@H](OC)[C@@H](OC(N)=O)/C(C)=C/[C@H](C)/C1=N\O)C2=O (stereo in doubt)
800 nM	CO[C@H]1[C@@H](OC)C[C@H](C)CC2=C(NCCN(C)C)C(=O)C=C(NC(=O)/C(C)=C/C=C\[C@H](OC)[C@@H](OC(N)=O)/C(C)=C/[C@@H]1C)C2=O
800 nM	CO[C@H]1/C=C\C=C(/C)C(=O)NC2=CC(=O)C(NCCc3c[nH]cn3)=C(C[C@@H](C)C[C@H](OC)[C@H](O)[C@@H](C)/C=C(\C)[C@@H]1OC(N)=O)C2=O (stereo in doubt)

Structure (SMILES)	Kd
CO[C@H]1/C=C\C=C(/C)C(=O)NC2=CC(=O)C(N)=C(C[C@@H](C)C[C@H](OC)[C@H](O)[C@@H](C)/C=C(\C)[C@@H]1OC(N)=O)C2=O (stereo in doubt)	100 nM
CO[C@H]1/C=C\C=C(/C)C(=O)NC2=CC(=O)C(N3CCC3)=C(C[C@@H](C)C[C@H](OC)[C@H](O)[C@@H](C)/C=C(\C)[C@@H]1OC(N)=O)C2=O (stereo in doubt)	1400 nM
CO[C@H]1[C@@H](OC)C[C@H](C)CC2=C(NCCN3CCC3)C(=O)C=C(NC(=O)/C(C)=C/C=C\[C@H](OC)[C@@H](OC(N)=O)/C(C)=C/[C@@H]1C)C2=O (stereo in doubt)	1000 nM
CO[C@H]1[C@@H](OC)C[C@H](C)CC2=C(NCCN3CCCC3)C(=O)C=C(NC(=O)/C(C)=C/C=C\[C@H](OC)[C@@H](OC(N)=O)/C(C)=C/[C@@H]1C)C2=O (stereo in doubt)	1000 nM
